The values that follow come from patent publication US10442778B2, “N1-phenylpropane-1,2-diamine compounds with selective activity in voltage-gated sodium channels” (Merck Sharp & Dohme Corp., priority 2016, dated 2019).

The target in assay [1] is T1, human Nav1.7 channels stably expressed in HEK 293 cells (Homo sapiens, UniProt Q15858).
T1 construct: expressed in transfected cells; host or cells: HEK 293
As to the kind of experiment: IonWorks Quattro automated patch-clamp, inactivated state block of Nav1.7. The class given is cell-based. The conditions noted are these: double-pulse protocol, read-out: potency for the Nav 1.7 sodium ion channel (as measured by IonWorks). The procedure: (§1) Compounds were tested on human Nav1.7 and Nav1.5 channels stably expressed in HEK 293 cells. […] Cells were sealed on a planar substrate using the Population Patch Plate (PPC) technology. Electrical access was obtained using both nystatin and amphotericin. A double-pulse protocol was used for the determination of IC50 values for inactivated state block. Nav1.7 and Nav1.5 expressing cells were voltage clamped at −100 mV and −110 mV, respectively. A depolarizing prepulse to −10 mV (Nav1.7) or −30 mV (Nav1.5) for 1000 ms followed by a 10 ms repolarization to −100 mV (Nav1.7) or −110 mV (Nav1.5) was given to generate fractional channel inactivation of ˜50%, followed by a 10 ms test pulse to −10 mV (Nav1.7) or −30 mV (Nav1.5) to measure peak current in control conditions and after compound addition. The following recording solutions were used (mM). External: 150 NaCl, 2 CaCl2, 5 KCl, 1 Mg Cl2, 10 HEPES, 12 Dextrose; internal: 120 CsF, 30 CsCl, 10 EGTA, 5 HEPES, 5 NaF, 2 MgCl2.
(§2) For all electrophysiology experiments, offline analysis was used to determine percent inhibition as a function of drug concentration. IC50 values were determined by fitting to the Hill equation.

In assay [2] the target is T2, human Nav1.5 channels stably expressed in HEK 293 cells (Homo sapiens, UniProt Q14524).
T2 construct: expressed in transfected cells; host or cells: HEK 293
Kind of assay: IonWorks Quattro automated patch-clamp, inactivated state block of Nav1.5 (selectivity). The class given is cell-based. The conditions noted are these: IonWorks measurement, both channels in HEK 293 cells. As for the experimental part:
as §1, §2
In general terms: The patch-clamp technique gives a direct electrical read-out from membranes.

A value given as a limit tells only on which side of the number the result lay.

T1 sequence (Q15858 whole entry): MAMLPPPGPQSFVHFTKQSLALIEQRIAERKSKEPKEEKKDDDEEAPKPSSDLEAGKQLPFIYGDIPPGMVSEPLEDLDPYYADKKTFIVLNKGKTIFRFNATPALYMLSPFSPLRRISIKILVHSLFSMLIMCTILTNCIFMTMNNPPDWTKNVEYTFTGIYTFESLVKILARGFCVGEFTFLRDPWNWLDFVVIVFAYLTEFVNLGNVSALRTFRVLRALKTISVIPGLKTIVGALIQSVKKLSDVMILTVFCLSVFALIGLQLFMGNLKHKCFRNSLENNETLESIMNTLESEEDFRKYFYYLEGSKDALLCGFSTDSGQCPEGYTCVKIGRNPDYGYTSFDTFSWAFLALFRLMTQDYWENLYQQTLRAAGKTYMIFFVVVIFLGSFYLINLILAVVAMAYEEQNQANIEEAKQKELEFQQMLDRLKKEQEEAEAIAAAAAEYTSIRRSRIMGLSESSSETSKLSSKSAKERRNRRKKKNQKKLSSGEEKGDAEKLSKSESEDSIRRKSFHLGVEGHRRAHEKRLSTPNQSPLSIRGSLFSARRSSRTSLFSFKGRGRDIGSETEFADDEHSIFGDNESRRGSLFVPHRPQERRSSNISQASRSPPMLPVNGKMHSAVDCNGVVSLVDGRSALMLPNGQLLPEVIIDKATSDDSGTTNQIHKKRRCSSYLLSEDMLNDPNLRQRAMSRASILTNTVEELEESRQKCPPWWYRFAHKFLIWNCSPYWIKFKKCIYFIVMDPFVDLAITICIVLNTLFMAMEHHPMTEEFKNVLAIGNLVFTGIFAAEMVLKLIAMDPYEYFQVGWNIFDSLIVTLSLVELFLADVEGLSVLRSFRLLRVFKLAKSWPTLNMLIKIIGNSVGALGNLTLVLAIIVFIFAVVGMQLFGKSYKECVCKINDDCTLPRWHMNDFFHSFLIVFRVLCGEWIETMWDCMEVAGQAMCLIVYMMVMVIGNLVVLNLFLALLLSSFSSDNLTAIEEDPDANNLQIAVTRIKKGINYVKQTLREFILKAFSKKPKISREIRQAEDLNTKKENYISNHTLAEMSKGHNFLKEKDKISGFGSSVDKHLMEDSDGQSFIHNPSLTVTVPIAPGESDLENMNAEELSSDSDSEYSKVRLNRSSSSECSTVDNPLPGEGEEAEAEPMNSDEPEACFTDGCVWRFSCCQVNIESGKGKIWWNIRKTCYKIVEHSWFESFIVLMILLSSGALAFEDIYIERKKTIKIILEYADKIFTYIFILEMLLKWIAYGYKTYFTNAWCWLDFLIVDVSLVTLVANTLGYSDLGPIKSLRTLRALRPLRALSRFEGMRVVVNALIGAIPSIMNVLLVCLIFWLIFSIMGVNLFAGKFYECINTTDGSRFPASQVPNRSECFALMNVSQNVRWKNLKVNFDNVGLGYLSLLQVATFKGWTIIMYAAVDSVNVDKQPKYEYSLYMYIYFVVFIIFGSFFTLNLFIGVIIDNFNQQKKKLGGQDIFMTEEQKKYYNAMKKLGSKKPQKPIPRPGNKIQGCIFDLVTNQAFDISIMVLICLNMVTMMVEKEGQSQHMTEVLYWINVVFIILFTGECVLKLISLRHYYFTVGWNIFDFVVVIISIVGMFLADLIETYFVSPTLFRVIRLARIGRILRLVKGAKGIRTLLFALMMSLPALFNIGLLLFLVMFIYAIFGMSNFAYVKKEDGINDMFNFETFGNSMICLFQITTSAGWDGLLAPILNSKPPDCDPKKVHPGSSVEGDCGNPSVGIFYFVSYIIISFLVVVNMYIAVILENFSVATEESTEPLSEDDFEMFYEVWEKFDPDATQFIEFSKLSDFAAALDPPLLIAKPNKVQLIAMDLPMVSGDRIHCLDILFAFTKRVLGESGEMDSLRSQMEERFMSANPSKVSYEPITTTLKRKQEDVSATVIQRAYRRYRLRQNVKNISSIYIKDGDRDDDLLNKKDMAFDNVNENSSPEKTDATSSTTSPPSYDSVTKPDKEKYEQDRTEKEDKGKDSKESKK
T2 sequence (Q14524 whole entry): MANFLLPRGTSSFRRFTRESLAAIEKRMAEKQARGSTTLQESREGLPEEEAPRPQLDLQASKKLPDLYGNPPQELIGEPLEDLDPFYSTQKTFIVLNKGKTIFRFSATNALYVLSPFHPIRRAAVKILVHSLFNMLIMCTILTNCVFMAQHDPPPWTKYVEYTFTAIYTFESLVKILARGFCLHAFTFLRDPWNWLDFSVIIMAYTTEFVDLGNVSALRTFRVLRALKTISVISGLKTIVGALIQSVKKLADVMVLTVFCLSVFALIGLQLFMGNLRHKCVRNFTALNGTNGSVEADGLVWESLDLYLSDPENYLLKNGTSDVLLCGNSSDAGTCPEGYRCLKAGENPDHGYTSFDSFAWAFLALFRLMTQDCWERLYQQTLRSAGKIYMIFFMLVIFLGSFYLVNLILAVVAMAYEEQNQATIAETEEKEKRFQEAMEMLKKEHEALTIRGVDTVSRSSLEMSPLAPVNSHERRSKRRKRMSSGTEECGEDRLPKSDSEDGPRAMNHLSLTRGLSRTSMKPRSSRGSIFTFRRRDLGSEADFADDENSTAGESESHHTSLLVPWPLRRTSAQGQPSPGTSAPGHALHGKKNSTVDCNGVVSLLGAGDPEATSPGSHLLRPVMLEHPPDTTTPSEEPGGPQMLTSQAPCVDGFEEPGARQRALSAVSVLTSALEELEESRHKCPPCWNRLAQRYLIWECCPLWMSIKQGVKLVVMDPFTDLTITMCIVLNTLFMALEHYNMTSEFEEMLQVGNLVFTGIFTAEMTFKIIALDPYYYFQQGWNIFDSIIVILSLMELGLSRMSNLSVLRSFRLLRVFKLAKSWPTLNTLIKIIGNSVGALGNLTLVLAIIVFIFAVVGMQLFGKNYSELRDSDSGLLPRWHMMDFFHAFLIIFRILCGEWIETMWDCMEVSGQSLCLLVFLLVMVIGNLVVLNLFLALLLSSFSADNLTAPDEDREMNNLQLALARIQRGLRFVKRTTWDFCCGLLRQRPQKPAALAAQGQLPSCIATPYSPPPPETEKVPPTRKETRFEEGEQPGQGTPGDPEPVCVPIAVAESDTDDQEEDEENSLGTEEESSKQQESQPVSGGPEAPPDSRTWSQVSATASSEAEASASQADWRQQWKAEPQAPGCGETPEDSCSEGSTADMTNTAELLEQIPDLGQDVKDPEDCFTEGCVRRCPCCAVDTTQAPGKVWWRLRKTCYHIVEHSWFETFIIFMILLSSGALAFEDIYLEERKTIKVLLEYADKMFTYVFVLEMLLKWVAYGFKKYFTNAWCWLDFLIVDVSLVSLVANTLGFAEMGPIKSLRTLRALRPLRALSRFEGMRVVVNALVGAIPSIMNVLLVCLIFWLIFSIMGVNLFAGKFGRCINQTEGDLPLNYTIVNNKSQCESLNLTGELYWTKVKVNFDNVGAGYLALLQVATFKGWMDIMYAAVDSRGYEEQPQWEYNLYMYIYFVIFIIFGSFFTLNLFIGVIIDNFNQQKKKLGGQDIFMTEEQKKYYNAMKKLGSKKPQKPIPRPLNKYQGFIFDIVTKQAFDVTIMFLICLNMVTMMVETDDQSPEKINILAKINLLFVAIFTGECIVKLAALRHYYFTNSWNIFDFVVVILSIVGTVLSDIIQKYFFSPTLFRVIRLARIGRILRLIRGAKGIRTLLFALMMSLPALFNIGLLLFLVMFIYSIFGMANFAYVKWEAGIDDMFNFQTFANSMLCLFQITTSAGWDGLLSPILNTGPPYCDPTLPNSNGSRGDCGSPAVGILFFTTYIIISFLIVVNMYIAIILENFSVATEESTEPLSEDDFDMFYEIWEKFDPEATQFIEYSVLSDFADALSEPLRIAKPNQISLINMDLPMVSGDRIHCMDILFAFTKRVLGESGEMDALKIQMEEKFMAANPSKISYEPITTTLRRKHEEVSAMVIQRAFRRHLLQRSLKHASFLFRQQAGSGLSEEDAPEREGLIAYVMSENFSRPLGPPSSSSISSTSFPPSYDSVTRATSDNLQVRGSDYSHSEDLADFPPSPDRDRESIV

As for `CN[C@H](CNc1cc(F)c(S(=O)(=O)Nc2ncc(F)s2)cc1Cl)CC12CC(C1)C2` [Ex2-13, (S)-4-((3-(bicyclo[1.1.1]pentan-1-yl)-2-(methylamino)propyl)-amino)-5-chloro-2-fluoro-N-(5-fluorothiazol-2-yl)-benzenesulfonamide], in assay [1], the IC50 came out at 0.054 µM. In assay [2], the “ratio of Nav1.7 potency:Nav 1.5 potency” value is greater than 611.

In the case of `CN[C@H](CNc1cc(F)c(S(=O)(=O)Nc2ncc(F)s2)cc1Cl)CC1CC1(C)C` (stereo partly drawn) [Ex2-20, 5-chloro-4-(((2S)-3-(2,2-dimethylcyclopropyl)-2-(methylamino)propyl)amino)-2-fluoro-N-(5-fluorothiazol-2-yl)-benzenesulfonamide], in assay [1], the IC50 turned out to be 0.068 µM. In addition, the “ratio of Nav1.7 potency:Nav 1.5 potency” value in assay [2] is reported as greater than 485.

As for `CN[C@H](CNc1cc(F)c(S(=O)(=O)Nc2ncc(F)s2)cc1Cl)Cc1ccccc1` [Ex1-27, (S)-5-chloro-2-fluoro-N-(5-fluorothiazol-2-yl)-4-((2-(methylamino)-3-phenylpropyl)amino)-benzenesulfonamide], the IC50 in assay [1] amounted to 0.19 µM. In assay [2], the “ratio of Nav1.7 potency:Nav 1.5 potency” value is reported as greater than 174.

Take `CN[C@H](CNc1cc(F)c(S(=O)(=O)Nc2nccs2)cc1Cl)CC1CCCCC1` [Ex1-18, (S)-5-chloro-4-((3-cyclohexyl-2-(methylamino)propyl)amino)-2-fluoro-N-(thiazol-2-yl)benzenesulfonamide]: in assay [1], the IC50 was determined as 0.015 µM. Also, the “ratio of Nav1.7 potency:Nav 1.5 potency” value in assay [2] is reported as greater than 2200.

For the compound `CN[C@H](CNc1cc(F)c(S(=O)(=O)Nc2nccs2)cc1Cl)Cc1cccc(F)c1Br` [Ex1-33, (S)-4-((3-(2-bromo-3-fluorophenyl)-2-(methyl-amino)propyl)-amino)-5-chloro-2-fluoro-N-(thiazol-2-yl)-benzenesulfonamide], in assay [1], the IC50 turned out to be 0.13 µM. For the same compound, the “ratio of Nav1.7 potency:Nav 1.5 potency” value in assay [2] is given as greater than 254.

Consider `CN[C@H](CNc1cc(F)c(S(=O)(=O)Nc2ncc(F)s2)cc1Cl)CC1CCC1` [Ex2-12, (S)-5-chloro-4-((3-cyclobutyl-2-(methylamino)propyl)amino)-2-fluoro-N-(5-fluorothiazol-2-yl)benzenesulfonamide], for which the IC50 in assay [1] is 1.03 µM. Also, in assay [2], the “ratio of Nav1.7 potency:Nav 1.5 potency” value is listed as greater than 32.

For `CN(C)[C@H](CNc1cc(F)c(S(=O)(=O)Nc2ncc(F)s2)cc1Cl)C[Si](C)(C)C` [Ex7-2, (R)-5-chloro-4-((2-(dimethylamino)-3-(trimethylsilyl)propyl)-amino)-2-fluoro-N-(5-fluorothiazol-2-yl)benzenesulfonamide], in assay [1], the IC50 was found to be 0.018 µM. In addition, in assay [2], the “ratio of Nav1.7 potency:Nav 1.5 potency” value was greater than 889.

In the case of `CN[C@@H](CCC1CCC1)CNc1cc(F)c(S(=O)(=O)Nc2ncc(F)s2)cc1Cl` [Ex3-13, (S)-5-chloro-4-((4-cyclobutyl-2-(methylamino)butyl)amino)-2-fluoro-N-(5-fluorothiazol-2-yl)-benzenesulfonamide], the IC50 in assay [1] was 0.3 µM. Moreover, the “ratio of Nav1.7 potency:Nav 1.5 potency” value in assay [2] is reported as greater than 110.

With `CN[C@H](CNc1cc(F)c(S(=O)(=O)Nc2nccs2)cc1Cl)Cc1ccc(F)c(F)c1` [Ex1-31, (S)-5-chloro-4-((3-(3,4-difluorophenyl)-2-(methyl-amino)propyl)amino)-2-fluoro-N-(thiazol-2-yl)-benzenesulfonamide], the IC50 in assay [1] amounted to 0.03 µM. Besides, the “ratio of Nav1.7 potency:Nav 1.5 potency” value in assay [2] is listed as greater than 1100.

Regarding `CN[C@H](CNc1cc(F)c(S(=O)(=O)Nc2ncns2)cc1Cl)Cc1ccccc1` [Ex1-26, (S)-5-chloro-2-fluoro-4-((2-(methylamino)-3-phenylpropyl)amino)-N-(1,2,4-thiadiazol-5-yl)-benzenesulfonamide], the IC50 in assay [1] worked out at 0.2 µM.

Turning to `CN[C@H](CNc1cc(F)c(S(=O)(=O)Nc2nccs2)cc1Cl)Cc1ccc(C)cc1` [Ex1-20, (S)-5-chloro-2-fluoro-4-((2-(methylamino)-3-(p-tolyl)propyl)amino)-N-(thiazol-2-yl)-benzenesulfonamide], the IC50 in assay [1] was 0.28 µM. In assay [2], the “ratio of Nav1.7 potency:Nav 1.5 potency” value is recorded as greater than 118.

As to `CN[C@H](CNc1cc(F)c(S(=O)(=O)Nc2nccs2)cc1Cl)Cc1cc(F)cc(F)c1` [Ex1-30, (S)-5-chloro-4-((3-(3,5-difluorophenyl)-2-(methyl-amino)-propyl)amino)-2-fluoro-N-(thiazol-2-yl)-benzenesulfonamide], the IC50 in assay [1] worked out at 0.16 µM. Besides, in assay [2], the “ratio of Nav1.7 potency:Nav 1.5 potency” value was greater than 206.

With `CN[C@H](CNc1cc(F)c(S(=O)(=O)Nc2ncc(F)s2)cc1Cl)CC1CC1` [Ex2-18, (S)-5-chloro-4-((3-cyclopropyl-2-(methylamino)propyl)amino)-2-fluoro-N-(5-fluorothiazol-2-yl)-benzenesulfonamide], the IC50 in assay [1] is 0.85 µM. The “ratio of Nav1.7 potency:Nav 1.5 potency” value in assay [2] was greater than 39.

Regarding `CN[C@H](CNc1cc(F)c(S(=O)(=O)Nc2nccs2)cc1Cl)Cc1cccc(Br)c1` [Ex1-23, (S)-4-((3-(3-bromo-phenyl)-2-(methylamino)-propyl)amino)-5-chloro-2-fluoro-N-(thiazol-2-yl)-benzenesulfonamide], the IC50 in assay [1] worked out at 0.036 µM. In assay [2], the “ratio of Nav1.7 potency:Nav 1.5 potency” value is on record as greater than 917.

On to `CN[C@H](CNc1cc(F)c(S(=O)(=O)Nc2nccs2)cc1Cl)Cc1ccc(Cl)cc1` [Ex1-34, (S)-5-chloro-4-((3-(4-chlorophenyl)-2-(methyl-amino)propyl)amino)-2-fluoro-N-(thiazol-2-yl)-benzenesulfonamide], for which the IC50 in assay [1] was found to be 0.033 µM. The “ratio of Nav1.7 potency:Nav 1.5 potency” value in assay [2] was greater than 1000.

Turning to `CN[C@H](CNc1cc(F)c(S(=O)(=O)Nc2ncc(F)s2)cc1Cl)CC1(C(F)(F)F)CC1` [Ex2-14, (S)-5-chloro-2-fluoro-N-(5-fluorothiazol-2-yl)-4-((2-(methylamino)-3-(1-(trifluoromethyl)cyclopropyl)-propyl)amino)benzenesulfonamide], in assay [1], the IC50 came to 0.17 µM.

Consider `CN[C@H](CNc1cc(F)c(S(=O)(=O)Nc2nccs2)cc1Cl)Cc1ccccc1` [Ex1-7, (S)-5-chloro-2-fluoro-4-((2-(methylamino)-3-phenylpropyl)amino)-N-(thiazol-2-yl)benzenesulfonamide], for which the IC50 in assay [1] came out at 0.2 µM.

Consider `CN[C@@H](CCc1ccccc1)CNc1cc(F)c(S(=O)(=O)Nc2nccs2)cc1Cl` [Ex1-21, (S)-5-chloro-2-fluoro-4-((2-(methylamino)-4-phenylbutyl)amino)-N-(thiazol-2-yl)-benzenesulfonamide], for which the IC50 in assay [1] worked out at 0.2 µM.

Consider `CN[C@H](CNc1cc(F)c(S(=O)(=O)Nc2nccs2)cc1Cl)Cc1ccccc1F` [Ex1-29, (S)-5-chloro-2-fluoro-4-((3-(2-fluorophenyl)-2-(methylamino)-propyl)-amino)-N-(thiazol-2-yl)-benzenesulfonamide], for which the IC50 in assay [1] stood at 0.31 µM. Further, in assay [2], the “ratio of Nav1.7 potency:Nav 1.5 potency” value is listed as greater than 106.

Regarding `CCN[C@H](CNc1cc(F)c(S(=O)(=O)Nc2ncc(F)s2)cc1Cl)C[Si](C)(C)C` [Ex7-4, (R)-5-chloro-4-((2-(ethylamino)-3-(trimethylsilyl)propyl)amino)-2-fluoro-N-(5-fluorothiazol-2-yl)benzenesulfonamide], the IC50 in assay [1] stood at 0.003 µM. Also, the “ratio of Nav1.7 potency:Nav 1.5 potency” value in assay [2] is recorded as greater than 11000.

On to `CN[C@H](CNc1cc(F)c(S(=O)(=O)Nc2nccs2)cc1Cl)Cc1ccc(F)cc1Br` [Ex1-32, (S)-4-((3-(2-bromo-4-fluorophenyl)-2-(methyl-amino)propyl)-amino)-5-chloro-2-fluoro-N-(thiazol-2-yl)-benzenesulfonamide], for which, in assay [1], the IC50 turned out to be 0.17 µM.

As to `CN[C@H](CNc1cc(F)c(S(=O)(=O)Nc2ncc(F)s2)cc1C#N)CC(C)(C)C` [Ex4-3, (S)-5-cyano-4-((4,4-dimethyl-2-(methylamino)pentyl)amino)-2-fluoro-N-(5-fluorothiazol-2-yl)benzenesulfonamide], in assay [1], the IC50 was 0.64 µM. Moreover, the “ratio of Nav1.7 potency:Nav 1.5 potency” value in assay [2] is given as greater than 52.

Consider `CN[C@H](CNc1cc(F)c(S(=O)(=O)Nc2ncc(F)s2)cc1Cl)CC1CCCC1` (single isomer, unassigned) [Ex3-11], for which the IC50 in assay [1] came to 0.11 µM.

Regarding `CN[C@H](CNc1cc(F)c(S(=O)(=O)Nc2ncc(F)s2)cc1Cl)CC1CC1(Cl)Cl` (stereo partly drawn) [Ex2-21, 5-chloro-4-(((2S)-3-(2,2-dichlorocyclopropyl)-2-(methylamino)propyl)amino)-2-fluoro-N-(5-fluorothiazol-2-yl)-benzenesulfonamide], the IC50 in assay [1] amounted to 0.11 µM.

In the case of `CN[C@H](CNc1cc(F)c(S(=O)(=O)Nc2nccs2)cc1Cl)Cc1ccc(Br)cc1` [Ex1-25, (S)-4-((3-(4-bromo-phenyl)-2-(methylamino)-propyl)amino)-5-chloro-2-fluoro-N-(thiazol-2-yl)-benzenesulfonamide], the IC50 in assay [1] was found to be 0.11 µM.

As to `CN(C)[C@H](CNc1cc(F)c(S(=O)(=O)Nc2ncc(F)s2)cc1Cl)CC1(C)CC1` [Ex7-3, (S)-5-chloro-4-((2-(dimethylamino)-3-(1-methylcyclopropyl)propyl)amino)-2-fluoro-N-(5-fluorothiazol-2-yl)benzenesulfonamide], the IC50 in assay [1] amounted to 0.15 µM.
